According to patent US20240336587A1, “CANNABICHROMENE DERIVATIVES AND METHODS FOR MAKING AND USING THE SAME” (University of Mississippi, priority 2021, published 2024):
“Also recorded” adds a separate entry of the source.

Assays:
[1] = test system: inflammatory nociception (acetic acid-induced abdominal writhes) in C57BL/6 mice; test: Abdominal writhing test (acetic acid-induced writhes); type: in vivo; conditions: mouse; for efficacy in abdominal writhing (racemate, diastereoisomers, CBC vs vehicle): one-way ANOVA post-hoc Bonferroni, FIG. 4A
Description: (§1) CBC and CBC-val-HS were dissolved in a solution of 10% ethanol/10% cremophore and 80% saline. Mice received IP injection of test compounds in a volume of 1.0 ml/kg for the abdominal writhing assay and 1.0 ml/kg, IP in the hot plate assay. For pharmacokinetic studies, drug was given in a volume of 1.0 ml/kg for tail vein and oral gavage administration. CBC-val-HS doses were calculated to be the dose equivalent of CBC.
(§2) All experimental procedures were approved by the University of Mississippi Institutional Animal Care and Use Committee (Protocol #19-009). Animal studies reported in compliance with the ARRIVE guidelines. Male wild-type C57BL/6 mice (7-10 weeks, 17-30 grams) were used for all behavioral studies and Male CD-1 (6-7 weeks, 20-25 grams) were used for all pharmacokinetic studies. Mice were purchased from Envigo, (Indianapolis, IN, USA) and acclimated for one week prior to experimentation. Mice were group-housed (n=4-5) in a polycarbonate tub with soft bedding in a temperature (22°±2) and humidity-controlled vivarium under a normal 12:12 h light/dark cycle (lights on at 06:00) with food and water ad libitum. Behavioral testing was performed during the hours of 08:00-18:00 with 30-minute acclimation to the testing room for all studies. Mice were assigned treatments through random block assignment per cage and experimenters were blinded to treatment conditions. Equipment was thoroughly sanitized with 70% ethanol between mice.
Abdominal writhing testing was used to quantify inflammatory nociception. Testing was conducted in clear, open-top, acrylic observation chambers (12.7×15.24 cm) located on a smooth surface. Test compounds were administered IP 30 minutes prior to behavioral testing. For testing, mice were then given an IP injection of 0.7% acetic acid in a volume of 10.0 ml/1 kg and immediately placed in an observation chamber for 30-minute test. The number of abdominal writhes served as the dependent measure.

[2] = test system: paw edema; conditions: restricted to high doses of over 100 mg/kg; cited from earlier work
[3] = test system: intestinal inflammation; conditions: far lower doses; cited from earlier work
[4] = test system: nociception; conditions: effect was time-dependent; cited from earlier work
[5] = test system: thermal nociception in C57BL/6 mice; test: Hot plate test (thermal nociception, 52° C.); type: in vivo; conditions: mouse, IP 30 minutes prior; FIG. 4B
Description: as §1
as §2, with “Mice were assigned treatments through random block assignment per cage and experimenters were blinded to treatment conditions. Equipment was thoroughly sanitized with 70% ethanol between mice.” left out
The hot plate (Harvard Instruments, Model #52-8570) was used to quantify thermal nociception. […]

[6] = Pharmacokinetic study, plasma levels by LC-MS-MS; type: in vivo, mouse
Description: as §1, §2
A pharmacokinetic study of CBC and CBC-val-HS was conducted using either intraperitoneal (IP), oral gavage, or and intravenous (IV; lateral tail vein) administration routes. For each route, four to five subjects were sacrificed at 0, 0.05, 0.25, 0.5, 1, 2, 4, 8, and 24 hr after drug administration. Mice were anesthetized with isoflurane, and whole blood was collected by cardiac puncture. Plasma was isolated by centrifugation (2000 rpm, 5 min) and stored at −80° C. until assayed.
For CBC in the plasma samples were extracted using solid phase cartridges. CBC-VHS plasma samples were diluted with cold acetonitrile, sonicated, centrifuged, transferred supernatant to another extraction tube, evaporated the solvent and reconstituted with acetonitrile for the analysis. The LC-MS-MS system consists of a Shimadzu Prominence UHPLC with a dual pump, a vacuum solvent micro-degasser, a controlled-temperature auto-sampler, and an MS-MS detector (Applied Biosystems/MSD Sciex QTRAP 4500/3200 with a turbo-ion ESI source operating the positive-ion multiple reaction monitoring, or MRM, mode). […] Deuterated internal standard D3-CBC was used for the quantitation of CBC and CBCVHS. The peak area corresponding to each extracted MRM was measured and correlated to a multiple point calibration curve to determine the plasma concentration of each analyte. […]

[7] = after parenteral administration; cited from earlier work

CCCCCc1cc(O)c2c(c1)OC(C)(CCC=C(C)C)C=C2 (centres unmarked) [CBC, Cannabichromene]
efficacy in abdominal writhing (racemate, diastereoisomers, CBC vs vehicle) [1]: effective
anti-inflammatory / anti-edematous properties in vivo [2]: mild anti-inflammatory, or anti-edematous properties
activity against intestinal inflammation in vivo [3]: protective activity
anti-nociceptive effect in tail-flick [4]: biphasic anti-nociceptive effects

CCCCCc1cc(OC(=O)C(NC(=O)CCC(=O)O)C(C)C)c2c(c1)OC(C)(CCC=C(C)C)C=C2 (racemic) [CBC-Val-HS, cannabichromene-valinate-hemisuccinate]
number of acid-induced abdominal writhes ([1]; increasing doses, IP 30 minutes prior to acetic acid injection, FIG. 2): significantly decreased
overall efficacy or potency in comparison to CBC, abdominal writhing ([1]; IP, two-way ANOVA, drug factor F=1.62, p=0.38): No differences in overall efficacy or potency; also recorded: equally efficacious
efficacy in abdominal writhing (racemate, diastereoisomers, CBC vs vehicle) [1]: as effective as CBC
latency to hotplate withdrawal (anti-nociception against thermal pain) [5]: displayed anti-nociceptive potential
peak concentration relative to peak concentration of CBC at the same dose equivalent ([6]; intravenous administration, in the hour following administration, FIG. 3A): greater than 10 × higher
chemical entity detected in circulating plasma ([6]; parenteral or oral administration to animals): the major chemical component detected in the circulating plasma is the intact CBC-Val-HS; also recorded: a majority of CBC-Val-HS remained intact in circulation
fraction observed in the plasma as intact CBC-Val-HS ([6]; plasma after administration): two-thirds
fraction of the derivative observed in the plasma as free CBC ([6]; plasma after administration): about one-third

CCCCCc1cc(OC(=O)C(NC(=O)CCC(=O)O)C(C)C)c2c(c1)OC(C)(C)C1CCC(C)=CC21 (centres unmarked) [THC-Val-HS]
presence of the Val-HS derivative in plasma (comparator cannabinoid derivatives) [7]: not found in plasma

C=C(C)C1CCC(C)=CC1c1c(OC(=O)[C@@H](NC(=O)CCC(=O)O)C(C)C)cc(CCCCC)cc1OC(=O)[C@@H](NC(=O)CCC(=O)O)C(C)C (some centres unmarked) [CBD-Val-HS]
presence of the Val-HS derivative in plasma (comparator cannabinoid derivatives) [7]: the only entity found in the plasma
